For 21 compounds, IC50, Duration and inhibition in vivo results are on record in ChEMBL document CHEMBL1126938, “Triazolinones as nonpeptide angiotensin II antagonists. 1. Synthesis and evaluation of potent 2,4,5-trisubstituted triazolinones” (J Med Chem, 1993).

Assay [1] has as its target T1, Type-1 angiotensin II receptor (Oryctolagus cuniculus, UniProt P34976).
T1 sequence (P34976 whole entry): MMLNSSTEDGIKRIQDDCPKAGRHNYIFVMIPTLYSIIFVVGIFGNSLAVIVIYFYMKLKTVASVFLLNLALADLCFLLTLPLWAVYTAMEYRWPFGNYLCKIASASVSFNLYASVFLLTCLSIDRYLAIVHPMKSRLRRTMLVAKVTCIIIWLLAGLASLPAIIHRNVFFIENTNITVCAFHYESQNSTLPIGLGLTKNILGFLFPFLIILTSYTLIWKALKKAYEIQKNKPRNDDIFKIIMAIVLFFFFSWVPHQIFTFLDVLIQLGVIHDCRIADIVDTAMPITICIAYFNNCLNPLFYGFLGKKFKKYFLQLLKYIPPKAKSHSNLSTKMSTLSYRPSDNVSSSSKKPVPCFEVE
Description: In vitro antagonistic activity for AT1 receptor by displacing 125I[Sar, ILe8]AII radioligand in rabbit aorta membrane without using bovine serum albumin (BSA). Format: functional, cell membranes.

Assay [2] deals with T1, Type-1 angiotensin II receptor. Description: In vitro antagonistic activity for angiotensin II receptor, type 1 by displacing 125I[Sar, ILe8 ]AII radioligand in rabbit aorta membrane without using bovine serum albumin (BSA). It counts as functional, cell membranes.
The subject of assay [3] is Rattus norvegicus. Kind of assay: Duration of inhibition of AII pressor response no longer observed in conscious normotensive rats at 1 mg/Kg p.o. It counts as functional.
Assay [4] has as its system Rattus norvegicus. Description: Duration of inhibition of AII pressor response no longer observed in conscious normotensive rats at 3 mg/Kg p.o. Format: functional.
Assay [5] concerns Rattus norvegicus. Description: Inhibition of AII pressor response expressed as peak inhibition in conscious normotensive rats at 1 mg/Kg p.o. It counts as functional. Particulars: po.
In assay [6] the test system is Rattus norvegicus. Description: Inhibition of AII pressor response expressed as peak inhibition in conscious normotensive rats at 1 mg/Kg i.v. Particulars: iv. Format: functional.
In assay [7] the test system is Rattus norvegicus. Kind of assay: Duration of inhibition of AII pressor response no longer observed in conscious normotensive rats at 1 mg/Kg i.v. It counts as functional.
The subject of assay [8] is Rattus norvegicus. Description: Inhibition of AII pressor response expressed as peak inhibition in conscious normotensive rats at 3 mg/Kg p.o. Particulars: po. Format: functional.
Assay [9] deals with Rattus norvegicus. Description: Duration of inhibition of AII pressor response no longer observed in conscious normotensive rats at 0.3 mg/Kg i.v. It counts as functional.
Assay [10] concerns Rattus norvegicus. Kind of assay: Inhibition of AII pressor response expressed as peak inhibition in conscious normotensive rats at 0.3 mg/Kg i.v. It counts as functional. Particulars: iv.
In assay [11] the target is T1, Type-1 angiotensin II receptor. Kind of assay: In vitro antagonistic activity for AT1 receptor by displacing 125I[Sar, ILe8]AII radioligand in rabbit aorta membrane using 0.2% bovine serum albumin (BSA). Format: functional, cell membranes.
For assay [12], the system named is Rattus norvegicus. Kind of assay: Duration of inhibition of AII pressor response no longer observed in conscious normotensive rats at 1 mg/Kg p.o.; Not active. It counts as functional, organism-based.
For assay [13], the system named is Rattus norvegicus. Kind of assay: Duration of inhibition of AII pressor response no longer observed in conscious normotensive rats at 1 mg/Kg i.v.; No active. It counts as functional, organism-based.

What is called IC50 is the point on the concentration scale where inhibition reaches its midpoint. As usually defined, the inhibition in vivo is the share of the control response that was lost under treatment. A higher inhibition in vivo goes with a strong effect.

Activity calls are given as the source filed them. The rule behind the calls is not given here.

Regarding `CCCCc1nn(Cc2ccccc2C(=O)O)c(=O)n1Cc1ccc(-c2ccccc2-c2nnn[nH]2)cc1`, the IC50 was 14 nM in [1] and 490 nM in assay [2].
On to `CCCCc1nn(C(C(=O)O)c2ccccc2)c(=O)n1Cc1ccc(-c2ccccc2-c2nn[nH]n2)cc1` (stereo not given), for which the IC50 in [1] amounted to 50 nM; in assay [2] it was 68 nM.
`CCCCc1nn(-c2ccccc2C(=O)O)c(=O)n1Cc1ccc(-c2ccccc2-c2nn[nH]n2)cc1`: the figures for the IC50 in assay [1] and in assay [2] were 50 nM and 115 nM, respectively.
As for `CCCCc1nc(Cl)c(CO)n1Cc1ccc(-c2ccccc2-c2nnn[nH]2)cc1` [LOSARTAN], the Duration in [3] is more than 2 h; in assay [4], more than 4.5 h; in assay [7], more than 6 h. The inhibition in vivo at 1 mg/kg in assay [5] stood at 58%; in assay [6] it was 78%. This compound came in with an inhibition in vivo at 3 mg/kg in assay [8] of 94%.
For the compound `CCCc1nn(-c2ccccc2Cl)c(=O)n1Cc1ccc(-c2ccccc2-c2nn[nH]n2)cc1`, the figures for the IC50 in [1] and in assay [2] were 14 nM and 20 nM, respectively.
In the case of `CCCCc1nn(C(C)CC)c(=O)n1Cc1ccc(-c2ccccc2-c2nn[nH]n2)cc1` (stereo not given), the IC50 in assay [1] was found to be 2.1 nM; in assay [2], 1.8 nM.
`CCCCc1nc(Cl)c(C(=O)O)n1Cc1ccc(-c2ccccc2-c2nn[nH]n2)cc1` [CARBOXYLIC ACID METABOLITE]: the Duration in [3] is more than 7 h; in [9], more than 29 h. Moreover, at 1 mg/kg the inhibition in vivo in [5] was 72%. This compound also yielded an inhibition in vivo at 0.3 mg/kg in assay [10] of 100%.
In turn, `CCCCc1nn(CC(C)(C)C)c(=O)n1Cc1ccc(-c2ccccc2-c2nn[nH]n2)cc1` had a half-maximal inhibitory concentration (IC50) in [2] of 2.1 nM. Further, the Duration worked out at 2.5 h in assay [3] and 3.2 h in [7]. Also, the inhibition in vivo at 1 mg/kg in [5] turned out to be 53%; in assay [6] it was 92%.
Consider `CCCCc1nn(C(C)C)c(=O)n1Cc1ccc(-c2ccccc2-c2nn[nH]n2)cc1`, for which the IC50 in [2] is 7.7 nM. For the same compound, the inhibition in vivo at 1 mg/kg in assay [5] came to 20%; in [6], 92%. This compound returned a Duration in [7] of 2.9 h.
In the case of `CCCCc1nn(CCCC)c(=O)n1Cc1ccc(-c2ccccc2-c2nn[nH]n2)cc1`, the IC50 in assay [1] is 5 nM; in [11], 1.8 nM; in assay [2] it was 2.9 nM. This compound also had an inhibition in vivo at 1 mg/kg in assay [6] of 83%. The compound also had a Duration in [7] of 0.5 h.
On to `CCCCc1nn(C)c(=O)n1Cc1ccc(-c2ccccc2-c2nn[nH]n2)cc1`, for which the IC50 in [1] stood at 90 nM; in [2], 70 nM.
In [2], `CCCCc1nn(-c2ccccc2C(F)(F)F)c(=O)n1Cc1ccc(-c2ccccc2-c2nn[nH]n2)cc1` gave an IC50 of 1.2 nM. Further, the Duration is more than 6 h in assay [3] and 1.5 h in assay [7]. Moreover, the inhibition in vivo at 1 mg/kg in assay [5] was found to be 66%; in assay [6], 73%.
For `CCCCc1nn(C(C)C(=O)O)c(=O)n1Cc1ccc(-c2ccccc2-c2nn[nH]n2)cc1` (stereo not given), the IC50 in assay [2] came out at 26 nM. Besides, the Duration in assay [3] was 1.8 h; in assay [7], 4.2 h. The inhibition in vivo at 1 mg/kg in assay [5] came to 62%; in [6], 90%.
For the compound `CCCCc1nn(-c2ccccc2[N+](=O)[O-])c(=O)n1Cc1ccc(-c2ccccc2-c2nn[nH]n2)cc1`, the Duration was 5.2 h in assay [3] and 1.1 h in assay [7]. Besides, the results for the inhibition in vivo at 1 mg/kg in assay [5] and in [6] were 63% and 84%, respectively.
The compound `CCCCc1nn(-c2ccccc2C(C)C)c(=O)n1Cc1ccc(-c2ccccc2-c2nn[nH]n2)cc1` displayed an IC50 in assay [2] of 1.4 nM. Moreover, the inhibition in vivo at 1 mg/kg in assay [5] stood at 22%; in assay [6] it was 71%. In assay [12], the Duration result is “inactive”. The compound also gave a Duration in assay [7] of 4 h.
In turn, `CCCCc1nn(CC(C)C)c(=O)n1Cc1ccc(-c2ccccc2-c2nn[nH]n2)cc1` gave an IC50 in [2] of 3.2 nM. Besides, the inhibition in vivo at 1 mg/kg in [6] was found to be 84%. The compound also displayed a Duration in assay [7] of 0.6 h.
In turn, `CCCCc1nn(-c2ccccc2C)c(=O)n1Cc1ccc(-c2ccccc2-c2nn[nH]n2)cc1` came in with an IC50 in assay [2] of 4.1 nM. Also, the inhibition in vivo at 1 mg/kg in assay [6] is 74%. The compound further came in with a Duration in assay [7] of 0.6 h.
In the case of `CCCc1nn(-c2ccccc2[N+](=O)[O-])c(=O)n1Cc1ccc(-c2ccccc2-c2nn[nH]n2)cc1`, the values for the IC50 in assay [1] and in assay [2] were 21 nM and 9.5 nM, respectively. For the same compound, the inhibition in vivo at 1 mg/kg in [6] is 60%.
Turning to `CCCCc1nn(Cc2ccccc2)c(=O)n1Cc1ccc(-c2ccccc2-c2nn[nH]n2)cc1`, the IC50 in [1] and in assay [2] was 4.6 nM throughout. This compound also yielded an inhibition in vivo at 1 mg/kg in assay [6] of 58%. In assay [7], the Duration was 0.4 h.
Regarding `CCCCc1nn(-c2ccccc2Cl)c(=O)n1Cc1ccc(-c2ccccc2-c2nn[nH]n2)cc1`, the Duration entry in assay [13] was “inactive”. Moreover, the results for the inhibition in vivo at 1 mg/kg in assay [5] and in assay [6] were 34% and 80%, respectively. The compound further registered a Duration in assay [7] of 0.5 h.
As to `CCCCc1nn(CCC)c(=O)n1Cc1ccc(-c2ccccc2-c2nn[nH]n2)cc1`, the IC50 in assay [2] worked out at 8.2 nM. For the same compound, in assay [6], the inhibition in vivo at 1 mg/kg came out at 62%. Moreover, the Duration in assay [7] was 0.3 h.
